Laboratory results as given in patent US6828450B2, “Triptycene analogs” (Kansas State University Research Foundation, priority 2000, dated 2004).
Where “and” joins values, the source holds several entries; their conditions need not be identical. Equal values may be shown once. Read-outs that look alike come from different tables or passages of the source. Values belong to the compound of their own block, whether it stands above or below them.

Assays:
HL-60-S cells [1] = experiment: HL-60-S cell viability assay (MTS:PMS); assay type: cell-based, human
Description: (§1) The MDR HL-60-RV and HL-60-R8 cells were developed in Melvin S. Center's laboratory (Kansas State University) and similarly maintained in RPMI 1640 medium in the absence of drugs (Marsh W, et al, Cancer Res 46: 4053-4057, 1986; McGrath T et al, and Center M S: Biochem Biophys Res Commun 145: 1171-1176, 1987; Marsh W and Center M S: Cancer Res 47: 5080-5086, 1987; McGrath T, et al, Biochem Pharmacol 38: 3611-3619, 1989; Marquardt D, et al, Cancer Res 50: 1426-1430, 1990; Marquardt D and Center M S: J Natl Cancer Inst 83: 1089-1109, 1991; Krishnamachary N and Center M S; Cancer Res 53: 3658-3661, 1993). Every 4 weeks, these HL-60-RV and HL-60-R8 sublines were exposed to 41 nM DAU for 48 h to stabilize their MDR phenotype. This concentration of DAU, which is not cytotoxic to MDR HL-60 sublines, was removed from the culture medium at least 48 h before experimentation. […] RFs were determined by dividing the IC50 of the MDR cells by that of the sensitive WT parent cell line.

HL-60-R8 cells [2] = experiment: DNA synthesis in HL-60-R8 cells; assay type: cell-based, human; settings: read-out: IC50, inhibition of DNA synthesis in HL-60-R8 cells
HL-60-RV cells [3] = experiment: DNA cleavage in HL-60-RV cells; assay type: cell-based, human; settings: 24 h
Protocol: (§2) FIG. 23. Comparison of the concentration-dependent inductions of DNA cleavage by DAU (open symbols in A) and TT2 (closed symbols in B) at 24 h in HL-60-S (circles), HL-60-RV (squares) and HL-60-R8 (triangles) cells containing ^3H-prelabeled DNA in vitro. Results are expressed as [cpm in supernatant/cpm in supernatant+pellet]×100 at 24 h. For untreated controls (14.7±1.7% DNA fragmentation, striped areas), the supernatant (DNA fragments) is 12,815±1,358 cpm and the pellet (intact DNA) is 74,406±9,078 cpm.
as §1, with “phenotype.” for “phenotype. This concentration of DAU, which is not cytotoxic to MDR HL-60 sublines, was removed from the culture medium at least 48 h before experimentation.”, “line. […]” for “line.”

HL-60-S cells [4] = experiment: DNA cleavage in HL-60-S cells; assay type: cell-based, human; settings: 24 h
Protocol: as §2, §1
Drug-induced DNA cleavage was determined by intact chromatin precipitation, using L1210, HL-60-S, HL-60-RV and HL-60-R8 cells which were prelabeled with 1 μCi of ^3H-thymidine for 2 h at 37° C., washed with 3×1 ml of ice-cold PBS, collected by centrifugation, and resuspended in fresh FCS-containing RPMI 1640 medium at a density of about 1×10^6 cells/0.5 ml for L1210 and 0.5×10^6 cells/0.5 ml for HL cells. Except when otherwise specified, such cells containing prelabeled DNA were then exposed for 24 h to TTs and drugs known to induce DNA fragmentation. After centrifugation at 200×g for 10 min to discard the drugs and wash the cells, the intact cell pellets were lysed for 30 min in 0.5 ml of HLB, centrifuged at 12,000×g for 30 min to collect the supernatants, and resuspended in 0.5 ml of HLB. After another similar centrifugation, the radioactivities in the pooled supernatants (detergent-soluble low molecular weight DNA fragments) and the pellet (intact chromatin DNA) were determined by LSC: % DNA fragmentation=[cpm in supernatant/cpm in supernatant+pellet]×100. Before being counted in 6 ml of Bio-Safe NA, the intact pelleted chromatin was incubated for 2 h at 60° C. in the presence of 0.6 ml of NCS tissue solubilizer (Amersham).

L1210 cells = experiment: Protein synthesis (3H-leucine incorporation) in L1210 cells; assay type: cell-based, murine
Protocol: FIG. 17. Comparison of the concentration-dependent inhibitions of protein synthesis by the TT analog TT2 (●) and DAU (∘) in L1210 cells in vitro. […] Protein synthesis in vehicle-treated control cells was 13,812±1,070 cpm (100±8%; striped area). The blank value (2,436±298 cpm) for cells incubated and pulse-labeled at 2° C. with 2.5 μCi of ^3H-leucine has been substracted from the results.
Except when otherwise specified, the cells were incubated at 37° C. for 90 min in the presence or absence of drugs and then pulse-labeled for an additional 30 min with 1 μCi of [methyl-^3H]thymidine (50 Ci/mmol; Amersham Corp., Arlington Heights, Ill.) to estimate the rate of DNA synthesis. […] After drying the filters, the radioactivity bound to the acid-precipitable material was determined by liquid scintillation counting (LSC) in 10 ml of Bio-Safe NA (Researeh Products International Corp., Mount Prospect, Ill.).

HL-60-R8 cells [5] = experiment: HL-60-R8 (MDR) cell proliferation assay; assay type: cell-based, human; settings: read-out: IC50, inhibition of HL-60-R8 cell proliferation
Description: as §1

HL-60-RV cells [6] = experiment: cells; assay type: cell-based, human; settings: for IC50: read-out: IC50, decrease of HL-60-RV cell viability
Description: as §1

[7] = HL-60-RV and HL-60-R8 vs HL-60-S, day 2
[8] = HL-60-RV and HL-60-R8 vs HL-60-S, day 4

IC50 (HL-60-S cells [1]; HL-60-S, HL-60-RV and HL-60-R8, day 4, read-out: IC50 values, decrease of cell viability, range over the three lines): 230 to 350 nM
IC50 (HL-60-S cells [1]; day 2, read-out: IC50, decrease of HL-60-S cell viability): 1300 nM
IC50 (HL-60-S cells [1]; day 4, read-out: IC50, decrease of HL-60-S cell viability): 230 nM
IC50 (HL-60-R8 cells [2]): 2100 nM
IC50 (L1210 cells; 3 h drug + 1 h pulse-labeling, read-out: IC50, inhibition of protein synthesis in L1210 cells): 6 µM and ~6 µM
IC50 (HL-60-R8 cells [5]; day 2): 350 nM
IC50 (HL-60-R8 cells [5]; day 4): 290 nM
RFs, cell viability (IC50 of MDR cells / IC50 of WT HL-60-S) (HL-60-RV cells [6]; [7]): 0.9-1.2
RFs, cell viability (IC50 of MDR cells / IC50 of WT HL-60-S) (HL-60-RV cells [6]; [8]): 1.5
IC50 (HL-60-RV cells [6]; day 2): 1100 nM
IC50 (HL-60-RV cells [6]; day 4): 340 nM
Structure (SMILES): COC1=CC(=O)C2=C(C1=O)C1C3=C(C(=O)C=CC3=O)C2c2ccccc21 (stereo not drawn) [TT2, 2-Methoxy-9,10-dihydro-9,10-[1′,2′]benzenoanthracene-1,4,5,8-tetraone]
times TT2 inhibits viability less effectively than DAU (HL-60-S cells [1]; HL-60-S): 15 times
reduction of the peak of maximal DNA cleavage relative to HL-60-S cells (HL-60-RV cells [3]): 39%
DNA cleavage, % above control level (HL-60-S cells [4]; 4 μM): 37%
DNA cleavage, % above control level (HL-60-S cells [4]; 10 μM): 14%
DNA cleavage, % below control level (HL-60-S cells [4]; 25 μM): 11%
times greater TT2 than DAU concentrations needed for more than 50% of DNA cleavage (HL-60-S cells [4]; HL-60-S): at least 2.5 times

Structure (SMILES): COc1cccc2c1C(=O)c1c(O)c3c(c(O)c1C2=O)C[C@@](O)(C(C)=O)C[C@@H]3O[C@H]1C[C@H](N)[C@H](O)[C@H](C)O1 [DAU, daunomycin, reference compound]
IC50 (HL-60-S cells [1]; Homo sapiens, 48 h, read-out: IC50, decrease of HL-60-S cell viability): 80 nM
IC50 (HL-60-S cells [1]; Homo sapiens, 96 h, read-out: IC50, decrease of HL-60-S cell viability): 15 nM
IC50 (HL-60-R8 cells [2]; Homo sapiens): 1700 nM
reduction of the peak of maximal DNA cleavage relative to HL-60-S cells (HL-60-RV cells [3]): 79%
DNA cleavage, % above control level (HL-60-S cells [4]; 1.6 μM, control 15% DNA fragmentation): 67%
DNA cleavage, % above control level (HL-60-S cells [4]; 4 μM): 18%
DNA cleavage, % below control level (HL-60-S cells [4]; 10 μM): 11%
DNA cleavage, % below control level (HL-60-S cells [4]; 25 μM): 14%
DNA cleavage, % above control level (submaximal) (HL-60-S cells [4]; 0.04-0.64 μM DAU): 11-58%
times DAU inhibits protein synthesis more effectively than TT2 (L1210 cells; L1210): ~3 times
IC50 (HL-60-R8 cells [5]; Homo sapiens, 48 h): 320 nM
IC50 (HL-60-R8 cells [5]; Homo sapiens, 96 h): 225 nM
times less potent as cytotoxic agent in MDR than in WT HL-60 cells (HL-60-RV cells [6]; HL-60-RV and HL-60-R8 vs HL-60-S): about 28 times
RFs, cell viability (IC50 of MDR cells / IC50 of WT HL-60-S) (HL-60-RV cells [6]; [7]): 23.8-31.3
RFs, cell viability (IC50 of MDR cells / IC50 of WT HL-60-S) (HL-60-RV cells [6]; [8]): 25.3-30.0
IC50 (HL-60-RV cells [6]; Homo sapiens, 96 h): 450 nM
